The results in this text go back to ChEMBL document CHEMBL1139062, “Synthesis and biological evaluation of new conformationally biased integrin ligands based on a tetrahydroazoninone scaffold” (Bioorg Med Chem Lett, 2007).

Assay type in all cases: protein-complex assay
For experiment [1], the target named is T1, Integrin alpha-V/beta-3 (Homo sapiens) (UniProt P05106+P06756). Kind of experiment: Displacement of [125I]echistatin from integrin alpha-V-beta-3 receptor at 0.001 uM.
Experiment [2] deals with T2, Integrin alpha-V/beta-5 (Homo sapiens) (UniProt P06756+P18084). Kind of experiment: Displacement of [125I]echistatin from integrin alpha-V-beta-5 receptor at […]. On the technique in general: Displacement assays read how much labelled ligand stays bound in the presence of the test substance.
The target of experiment [3] is T1, Integrin alpha-V/beta-3 (Homo sapiens). Kind of experiment: Displacement of [125I]echistatin from integrin alpha-V-beta-3 receptor at 10 uM.
Experiment [4] has the same target. Kind of experiment: Displacement of [125I]echistatin from integrin alpha-V-beta-3 receptor at 1 uM.
The target in experiment [5] is T2, Integrin alpha-V/beta-5 (Homo sapiens). Kind of experiment: Displacement of [125I]echistatin from integrin alpha-V-beta-5 receptor at 1000 uM.
Experiment [6] has as its target T1, Integrin alpha-V/beta-3 (Homo sapiens). Kind of experiment: Displacement of [125I]echistatin from integrin alpha-V-beta-3 receptor at 0.01 uM.
For experiment [7] the target is unchanged. Kind of experiment: Displacement of [125I]echistatin from integrin alpha-V-beta-3 receptor at 0.1 uM.

By inhibition is commonly meant the drop in the measured response relative to a control, in per cent. High values mean a strong effect, low ones a weak effect. With `N=C(N)NCCC[C@@H]1NC(=O)CNC(=O)[C@@H](CC(=O)O)N[C@H]2CCC[C@H]3CC[C@H](C1=O)N3C2=O`, the inhibition in experiment [1] came to 85%.

For the compound `CC12CC/C=C\CC(NC1=O)C(=O)N[C@H](CCCNC(=N)N)C(=O)NCC(=O)N[C@@H](CC(=O)O)C(=O)N2Cc1ccccc1` (stereo in doubt; 2a), the inhibition was found to be 17% in experiment [2], 48% in experiment [3], 49% in experiment [4] and 13% in experiment [5].

As for `CC12CC/C=C\CC(NC1=O)C(=O)N[C@H](CCCNC(=N)N)C(=O)NCC(=O)N[C@@H](CC(=O)O)C(=O)N2Cc1ccccc1` (stereo in doubt; 2b), the inhibition in experiment [6] was 15%; in experiment [2] it was 15%; in experiment [7], 53%; in experiment [1] it was 5%; in experiment [3] it was 52%; in experiment [4] it was 50%. The compound also showed an inhibition in experiment [5] of 13%.

`CC12CC/C=C\CC(NC1=O)C(=O)N[C@H](CCCNC(=N)N)C(=O)NCC(=O)N[C@@H](CC(=O)O)C(=O)N2` (stereo in doubt; 3a): the inhibition in experiment [3] came to 62%; in experiment [4], 30%.

Consider `CC12CC/C=C\CC(NC1=O)C(=O)N[C@H](CCCNC(=N)N)C(=O)NCC(=O)N[C@@H](CC(=O)O)C(=O)N2` (stereo in doubt; 3b), for which the inhibition stood at 62% in experiment [3] and 30% in experiment [4].
